{"source": "patent US20190290729A1", "about": "“PHARMACEUTICAL ASSOCIATION OF GROWTH FACTOR RECEPTOR AGONIST AND ADHESION PROTEIN INHIBITOR FOR CONVERTING A NEOPLASTIC CELL INTO A NON-NEOPLASTIC CELL AND USES THEREOF” (HISTIDE AG, priority 2015, published 2019)", "system": "osteosarcoma cells", "assay": "Immunofluorescence of cell adhesion and morphology on grafted polymer scaffolds (actin, vinculin, DAPI)", "type": "cell-based", "conditions": "polymer scaffold covalently modified with mixture of GFR-binding compound and RGD peptide, 24 hours of culture", "method": "FIG. 9 is (a) a representation of a Quantitative Real Time PCR analysis of the expression of DMP-1, SCT and RANK-L in neoplastic cells (osteosarcoma cells) cultured on a native polymer scaffold (control) and on a polymer scaffold grafted with a mixture comprising a GFR-binding compound as defined in the present disclosure and a RGD peptide, after 24 hours of culture, (b) immunofluorescence staining of a representative neoplastic cell (osteosarcoma cells) cultured on a polymer scaffold grafted with a mixture comprising a GFR-binding compound as defined in the present disclosure (ID SEQ NO: 2) and a RGD peptide, after 24 hours of culture. The actin filaments were immunostained by using Alexa 488-phalloidin. The focal adhesions were represented by immunostaining with anti-vinculin. The nucleus was stained with DAPI and is represented by a circle in the center of the cell. Scale bar: 5 μm. (c) is a diagram representing the grafting density of a radiolabeled GFR-binding compound as defined in the present disclosure covalently grafted on a polymer scaffold and of a radiolabeled GFR-binding compound and a non-labeled RGD peptide both grafted on a polymer scaffold. The measurements were performed by using radioactivity quantification (no significant difference was observed). […]", "note": "Where no end group is shown, it is not given here."}
{"substance": "SEQ ID NO: 2: GFR-binding compound as defined in the present disclosure, grafted with a RGD peptide on a polymer scaffold (KVGKASSAPTKLSAISMLYLDDMGVPTLKNYQNMVVR; also: grafted with RGD peptide on polymer scaffold)", "values": [{"measurement": "morphology of neoplastic cells (immunofluorescence)", "result": "Spheroid-like structures of neoplastic cells become predominant"}]}
